Where two headings read alike, the source gives them in different places.

The EC50 is the concentration at which the effect is half-maximal.

Data set [1] relates to CYP1A1 mRNA. The data set can be described thus: Summary of CYP1A1 gene expression in human hepatic and intestinal cells. The format is cell-based. The settings on record: for induction of CYP1A1 mRNA: 200 µM, LS180 cells, HT-29 cells, and primary human hepatocytes; for Gene Expression: Table 1 summary class, CYP1A1. The method, then: (§1) Figure 4 Effects of MICT on the induction of CYP1A1 mRNA in human hepatic and intestinal cells. Cultured cells were incubated for 24 h with the vehicle (DMSO; 0.1% v/v) and tested MICT in the presence or absence of TCDD (10 nM). RT-PCR determined the level of CYP1A1 mRNA, and the data were normalized per GAPDH mRNA level. […] (A,B) Experiments in three consecutive passages of human colon adenocarcinoma cell line LS180 in the absence (A) and the presence (B) of 10 nM TCDD. The bar graphs show the percentage of maximal induction attained by TCDD and are expressed as the mean ± SD. (C) Experiments in three consecutive passages of wild-type (AhR^+/^+) and AhR-knockout (AhR^−/^−) HT-29 cells. […] (D) Primary human hepatocytes from three different donors (LH79, Hep2201020, and Hep2201021).
(§2) Total RNA was isolated using TRI Reagent® (Sigma Aldrich, Prague, Czech Republic). cDNA was synthesized using M-MuLV reverse transcriptase (New England Biolabs, Ipswich, MA, USA). The reverse transcription was performed at 42 °C for 60 min using Random Primers 6 (New England Biolabs, Ipswich, MA, USA) and diluted in a 1:4 ratio by PCR-grade water. The quantitative reverse transcriptase-polymerase chain reaction (qRT-PCR) was performed on the Lightcycler 480 II using the LightCycler ® 480 Probes Master (Roche Diagnostic Corporation, Prague, Czech Republic). The levels of CYP1A1 and GAPDH mRNAs were determined using the Universal Probe Library probes (UPL; Roche Diagnostic Corporation, Prague, Czech Republic) in combination with specific primers, using a protocol described elsewhere. All measurements were performed in triplicates, and the gene expression was normalized to glyceraldehyde-3-phosphate dehydrogenase (GAPDH) as a house-keeping gene. The data were processed using the delta-delta Ct method and expressed as a fold induction over the negative control (DMSO) or as a percentage of the positive control (maximal induction by TCDD).

Data set [2] concerns CYP1A1 mRNA. On the set-up: method as in PMID 24563545. As to conditions: 100 µM IAA, cited from earlier work.
Data set [3] has as its system CYP1A1 mRNA. The data set can be described thus: CYP1A1 mRNA (qRT-PCR) in intestinal LS180 cells. In kind it is cell-based, human. As to conditions: LS180 cells co-incubated with TCDD (10 nM), 24 h. Here is the method:
as §1, §2

The next data set deals with guinea pig AhR. On the set-up: method as in PMID 9708986. As to conditions: cited from earlier work.
Data set [4] has as its system AhR. On the set-up: method as in PMID 27158904. As to conditions: IAA approx. 5000 µM; cited from earlier work.
The next data set concerns mouse AhR. On the set-up: method as in PMID 9708986. As to conditions: cited from earlier work.
Data set [5] deals with T1, AhR (Homo sapiens, UniProt P35869).
T1 sequence (P35869 11-848): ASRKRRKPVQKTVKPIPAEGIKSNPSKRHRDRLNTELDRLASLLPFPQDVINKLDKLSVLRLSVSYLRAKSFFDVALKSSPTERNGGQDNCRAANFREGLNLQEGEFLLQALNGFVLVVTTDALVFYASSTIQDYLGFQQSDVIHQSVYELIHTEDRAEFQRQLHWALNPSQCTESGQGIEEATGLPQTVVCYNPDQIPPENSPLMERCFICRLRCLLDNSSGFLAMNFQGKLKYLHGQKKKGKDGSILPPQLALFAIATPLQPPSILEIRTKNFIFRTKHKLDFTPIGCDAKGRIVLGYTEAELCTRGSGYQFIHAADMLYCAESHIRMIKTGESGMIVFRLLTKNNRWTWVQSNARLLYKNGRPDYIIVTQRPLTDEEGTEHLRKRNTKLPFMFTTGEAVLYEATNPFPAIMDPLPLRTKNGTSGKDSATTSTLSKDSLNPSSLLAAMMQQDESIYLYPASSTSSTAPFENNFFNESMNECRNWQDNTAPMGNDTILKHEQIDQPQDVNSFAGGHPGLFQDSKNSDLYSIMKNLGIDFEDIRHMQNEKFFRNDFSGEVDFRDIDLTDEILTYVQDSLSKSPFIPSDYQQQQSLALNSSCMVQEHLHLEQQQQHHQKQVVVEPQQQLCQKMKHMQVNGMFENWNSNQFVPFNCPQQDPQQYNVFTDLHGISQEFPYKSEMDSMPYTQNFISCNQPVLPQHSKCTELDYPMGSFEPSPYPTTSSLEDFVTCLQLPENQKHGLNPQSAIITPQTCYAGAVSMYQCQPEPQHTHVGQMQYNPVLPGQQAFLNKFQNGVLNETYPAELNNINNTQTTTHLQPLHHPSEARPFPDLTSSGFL
Nature of the data set: Reporter gene assay in AZ-AHR cells, agonist analyses (luciferase). Here is the method: (§3) In the first series of experiments, we evaluated the agonistic and antagonistic effects of MICT on the AhR activation. […] The antagonistic effects of MICT were evaluated against typical full agonists of the AhR, comprising TCDD, BaP, and FICZ, which were applied at fixed concentrations corresponding to their EC80.
(§4) Following the treatments, we lysed cells, and luciferase activity was measured. Experiments were performed at least in four consecutive cell passages. Incubations were performed in quadruplicates (technical replicates). In agonist analyses, the data from a representative experiment, expressed as a fold induction of luciferase activity over control cells, are shown. In antagonist analyses, the data are a percentage of maximal induction, and they are the mean ± SD.
(§5) Then, cells were lysed, and luciferase activity was measured using the Tecan Infinite M200 plate luminometer (Schoeller Instruments, Czech Republic). The experiments were performed in at least four consecutive cell passages, and the treatments were in quadruplicates (technical replicates). The values of half-maximal effective concentration (EC50) for each MICT, and half-maximal inhibitory concentration (IC50—where appropriate) were calculated.
Supplementary Figure 2. Tryptophan effects in culture medium on AhR activity. (A) Time-course of Trp
levels in culture media from hepatic (AZ-AHR), instestinal (LS174T) and skin (HaCaT) cells. Determined by
HPLC. (B) Induction of AhR-dependent luciferase activity in AZ-AHR cells incubated for 24 h with TCDD,
Indole and Trp in Trp/serum-free culture medium. (C) Induction of AhR-dependent luciferase activity in
AZ-AHR cells incubated for 24 h with TCDD and Indole in standard (+Trp/+FBS), serum-free (+Trp/-FBS),
Trp-free (-Trp/+FBS) and Trp/serum-free (-Trp/-FBS) culture medium. […]

For data set [6], the target named is T1, AhR. The data set can be described thus: Reporter gene assay in AZ-AHR cells, antagonist analyses against TCDD, BaP, FICZ. The method, then: as §3
as §4, with “AZ-AHR cells were incubated for 24 h with vehicle (DMSO; 0.1% v/v) and increasing concentrations of MICT, in the absence (agonist analyses) or the presence (antagonist analyses) of TCDD (13.5 nM), BaP (15.8 µM) and FICZ (22.6 µM). Following” for “Following”
as §5, with “AZ-AHR cells were incubated for 24 h with vehicle (DMSO; 0.1% v/v) and increasing concentrations of tested MICT in the presence or absence of TCDD (13.5 nM), FICZ (22.6 µM), or BaP (15.8 µM). Then,” for “Then,”
For orientation: Reporter assays use an easily measured gene product as a stand-in for the process of interest.

The test system of data set [7] is AhR. Further details: method as in PMID 26235394. The settings on record: 10 µM IPA, HepG2 cells; cited from earlier work.
In a further data set the target is T2, murine AhR (Mus musculus, UniProt P30561).
T2 sequence (P30561 10-805): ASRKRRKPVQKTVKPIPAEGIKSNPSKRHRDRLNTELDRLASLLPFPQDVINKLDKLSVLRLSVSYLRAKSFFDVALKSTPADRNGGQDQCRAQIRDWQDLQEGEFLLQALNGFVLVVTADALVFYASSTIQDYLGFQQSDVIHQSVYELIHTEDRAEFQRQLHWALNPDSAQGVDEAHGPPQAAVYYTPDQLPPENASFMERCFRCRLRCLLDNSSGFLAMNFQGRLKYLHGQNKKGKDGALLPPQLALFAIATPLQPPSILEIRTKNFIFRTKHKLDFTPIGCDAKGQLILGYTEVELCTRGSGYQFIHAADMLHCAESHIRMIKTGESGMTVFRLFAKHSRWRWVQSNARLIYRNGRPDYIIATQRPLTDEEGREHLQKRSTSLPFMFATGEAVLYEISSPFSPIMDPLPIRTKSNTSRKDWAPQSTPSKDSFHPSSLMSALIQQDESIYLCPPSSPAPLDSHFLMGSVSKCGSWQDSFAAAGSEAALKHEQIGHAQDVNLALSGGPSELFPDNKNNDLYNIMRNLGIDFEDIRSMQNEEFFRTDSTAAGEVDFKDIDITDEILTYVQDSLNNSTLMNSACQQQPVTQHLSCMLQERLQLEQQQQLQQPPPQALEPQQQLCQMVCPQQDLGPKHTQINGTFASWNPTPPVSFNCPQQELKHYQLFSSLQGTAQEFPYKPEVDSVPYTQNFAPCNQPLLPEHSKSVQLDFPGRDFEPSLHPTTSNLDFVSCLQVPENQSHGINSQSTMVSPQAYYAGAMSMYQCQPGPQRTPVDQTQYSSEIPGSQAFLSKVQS
Nature of the data set: Competitive radio-ligand ([3H]-TCDD) AhR binding assay, cytosols from Hepa1c1c7 cells. The settings on record: data not shown. The method, then: Figure 2 Competitive radio-ligand binding assay. Cytosols from Hepa1c1c7 cells were incubated with vehicle (negative control; 0.1% V/V), FICZ (positive control; 0.01 nM – 10 nM), TCDF (non-specific binding; 200 nM) and increasing doses of MICT in the presence of 2 nM [^3H]-TCDD. The specific binding of [^3H]-TCDD was determined as a difference between total and non-specific (200 nM; TCDF) reactions (value for vehicle DMSO; 0.1% V/V = corresponds to specific binding of [^3H]-TCDD = 100%). At least two independent experiments were performed and the incubations were done in triplicates in each experiment (technical replicates).
Ligand binding assay was performed using cytosolic protein extracts from murine Hepa1c1c7 cells as described. Briefly, aliquots of protein (2 mg/mL) were incubated at the room temperature for two (2) h with 2 nM [^3H]-TCDD in the presence of DMSO (vehicle control), FICZ (positive control), 200 nM TCDF (non-specific binding) or increasing concentration of MICT. After the incubation, the hydroxyapatite slurry was added to the samples and the suspension was incubated on ice and washed three times with HEGT buffer. The hydroxyapatite pellet was re-suspended in scintillation cocktail, and radioactivity was determined in a liquid scintillation counter. The specific binding of [^3H]-TCDD was determined by subtracting the radioactivity of non-specific reaction (TCDF) from total radioactivity. The values of IC50 were calculated where appropriate.

For the molecule `O=C(O)Cc1c[nH]c2ccccc12` [IAA, indole-3-acetate], the “induction of CYP1A1 mRNA” value in the data set with CYP1A1 mRNA [1] is given as “no induction”; in the data set with CYP1A1 mRNA [2] (Caco-2 and MDA-MB-231 cells), “≈ 5 fold”; in the data set on CYP1A1 mRNA [2] (MDA-MB-468 cells), “not”. The “Gene Expression” value in the data set with CYP1A1 mRNA [1] was “inactive”. Besides, in the data set with CYP1A1 mRNA [3], the “antagonistic effects on CYP1A1 mRNA” value is listed as “to a lesser extent”. The “concentration at which activation of AhR was described” value in the data set with guinea pig AhR and with mouse AhR was 2 mM throughout. In the data set with AhR [4], the “activation of the AhR” value is on record as 15 fold.
Turning to `O=C(O)CCc1c[nH]c2ccccc12` [IPA, indole-3-propionate], the “activation of AhR” value at AhR [5] (AZ-AHR cells, 200 µM) was “negligible activation”. On AhR [5] (AZ-AHR cells, 24 h, up to 200 µM (IAC 100 µM, IND 10 mM), plateau not reached), the “fold induction of luciferase activity (efficacy)” value is on record as “≈ 8 fold”. The concentration giving a half-maximal response (EC50) at AhR [5] (EC50, AZ-AHR cells, 24 h, agonist analyses) turned out to be 98.3 ± 5.72 µM. Besides, on AhR [5] (Table 1 summary class), the “Efficacy (EMAX)” value is listed as “low” and the “Potency (EC50)” value is “low”. In the data set with CYP1A1 mRNA [1], the “induction of CYP1A1 mRNA” value was “no induction” and the “Gene Expression” value was “inactive”. Besides, the “antagonistic effect against full agonists” value on AhR [6] (AZ-AHR cells, 24 h, TCDD, BaP and FICZ at EC80) is reported as “no antagonistic effects”. Besides, the “Antagonism (IC50)” value on AhR [6] (Table 1 summary class) is “none”. Besides, in the data set with AhR [7], the AhR activation entry is “no AhR activation”. For the same molecule, the “antagonistic effects on CYP1A1 mRNA” value in the data set with CYP1A1 mRNA [3] was “to a lesser extent”.
Regarding `N[C@@H](Cc1c[nH]c2ccccc12)C(=O)O` [Trp, tryptophan], the “activation of AhR” value on AhR [5] is recorded as “did not activate”. Also, the “displacement of 3H-TCDD from binding at the murine AhR” value at murine AhR is “did not displace”.

The values above are taken from article PMC7177849, “Gut Microbial Catabolites of Tryptophan Are Ligands and Agonists of the Aryl Hydrocarbon Receptor: A Detailed Characterization” (International Journal of Molecular Sciences, 2020).
